Patent US20150291597A1, “NOVEL ORALLY BIOAVAILABLE BREATHING CONTROL MODULATING COMPOUNDS, AND METHODS OF USING SAME” (Galleon Pharmaceuticals, Inc., priority 2012, published 2015)
“Also recorded” adds a separate entry of the source. Structures can show the parent of a compound that is named as a salt.

Legend:
[1] = Solubility of the hydrogen sulfate salt in solvents; assay type: physicochemical
[2] = tested on: rats chronically treated with morphine; assay: Apnea, sleep architecture and ventilatory response in rats chronically treated with morphine; assay type: in vivo, Adult male lean Zucker rats; settings: 7 mg/kg PO, versus vehicle
Protocol: The objective of this study was to quantify the effects of select compounds of this invention on apnea, ventilation and sleep structure in a rat model. The study consisted of two treatment conditions: (1) chronic morphine and test compound, such as Compound 5b administered orally (7 mg/kg, PO), and (2) chronic morphine and oral vehicle. Adult male lean Zucker rats were anesthetized for electroencephalogram (EEG) and electromyogram (EMG) telemeter implantation. At least 1 week was permitted post-surgery before animals were used further. Morphine sulfate was added to the drinking water of singly housed rats beginning with 0.1 mg/ml morphine and increasing the concentration in increments so that a final concentration of 0.6 mg/ml was achieved within 2 weeks. All respiratory measurements were made while animals were unrestrained in whole-body plethysmography chambers to permit animals to sleep and move freely. To avoid eliciting withdrawal, morphine water was continuously available during each plethysmography experiment. Minute volume and the number of central sleep apneas (CSA) were measured during all treatment conditions. A period of at least 1 to 1.5 h was permitted for animals to acclimate to the chamber before data collection began. The biopotential telemeters and their receivers were placed directly under the plethysmographic chambers and were used to continuously to capture EEG, EMG, and body temperature signals. Only data collected between the hours of 10 am to 4:30 pm were used in the final analysis to control for the effects of circadian rhythm on breathing.
Compound 5b (7 mg/kg) or an equivalent volume of vehicle was administered via an oral gavage tube at 12 pm. Data collected between 10 am and 12 pm represented baseline (pre-drug) conditions. Data collected between 12 pm and 4:30 pm represented post-drug conditions. Analyses of the EEG and EMG waveforms for the purpose of staging sleep-wake behavior in rats as awake, NREM sleep, and REM sleep were based on previous sleep studies involving rodents. Central apneas were defined as a respiratory cycle period that was more than or equal to twice the average cycle period during baseline recordings, which is consistent with how others have defined central apneas in rodents. Percent time in each sleep-wake state, minute volume, and central sleep apnea counts were compared between treatment groups using a two-way ANOVA (factors: drug treatment and time). Breathing data during wakefulness was not analyzed because movement prevents measurement of accurate volumes when using whole-body plethysmography. When differences were detected with ANOVA, Student-Neuman-Keuls post hoc tests were run for all main effects and interactions. Differences were considered significant when p<0.05. Values are expressed as means±SE.

[3] = tested on: carotid body; assay: Carotid sinus nerve transection (CSNTx) in urethane anesthetized rats, minute volume; assay type: in vivo, adult male Sprague Dawley rats
Protocol: The objective of this study was to assess the role of carotid body sinus nerve activity on ventilation, as measured by minute volume, in rats treated with compounds of this invention, such as Compound 5b, versus a saline-treated group. Urethane anesthetized adult male Sprague Dawley rats and tracheal spirometry (pneumotachometry) techniques were used (Example 56). Vehicle (saline) and Compound 5b (0.1 and 0.3 mg/kg) were administered as IV boluses to 5 rats. The carotid sinus nerves were isolated in the neck and transected thereby denervating both carotid bodies. Vehicle and Compound 5b were re-administered IV. Animals were exposed to low inspired O2 (hypoxia) to confirm functionally complete nerve transections. The change in minute volume ΔVE (% of baseline above baseline) in response to saline/Compound 5b before and after carotid body denervation was measured.

[4] = tested on: rat; assay: Minute volume and mean blood pressure in the rat upon oral dosing (plethysmography, telemetry); assay type: in vivo, Male Sprague Dawley rats; settings: 20 mg/kg PO
Protocol: Compounds were administered orally to rat and evaluated for effects on ventilatory and cardiovascular parameters.
Male Sprague Dawley rats (0.30-0.38 kg, n=4) were surgically implanted with ECG/blood pressure telemeters (Telemetry Research, Inc., Auckland, New Zweland) prior to data collection. The animals were acclimated to plethysmography chambers for a minimum period of 60 minutes. After this time, test compound (20 mg/kg, PO) or vehicle (0.9% saline) was administered by oral gavage. Respiratory and cardiovascular data were collected immediately thereafter for a period of 3 h using plethysmography (Buxco, Inc.) and telemetry (LabChart data acquisition software, AD instruments, Inc.). Each rat received test compound and vehicle during the course of the study and thus each animal served as its own control. Vehicle effects were subtracted from drug response (Drug-Veh) and the difference was reported as a mean percent (%) change over time±SE.

[5] = tested on: anesthetized rats; assay: Anesthetized rat spirometry screening assay (respiratory rate, tidal volume, minute volume; IV bolus); assay type: in vivo; settings: 0.3 mg/kg IV bolus
From the text: Anesthetized rats provide a quick method of screening compounds for respiratory and cardiovascular activity. In contrast to the conscious rat model, this model offers an experimental set up with less variation in the baseline cardiovascular and respiratory measures. Compounds screened in this assay may be examined in a conscious rat model.
Rats were initially anesthetized with 3% isoflurane (inhaled) and femoral artery and vein cannulas were surgically inserted. Once cannulated, the rats were transitioned to urethane anesthesia (1.5 g/kg; i.v.) and a tracheal cut-down was performed. After placing the tracheal cannula, it was connected to a pneumotach to record respiratory airflow from which respiratory rate (RR), tidal volume (VT), and their product minute volume were derived. After the surgical preparation was complete, animals were allowed to stabilize for 30 minutes while respiratory rate, tidal volume, minute volume, blood pressure and heart rate were recorded continuously. Arterial blood gases (ABG) were obtained from arterial blood collected from the femoral artery. ABG measurements were taken before and 6 minutes after vehicle and each dose of compound administered. Compounds being screened were administered via bolus injections through the venous cannula followed by a saline flush (total time of administration is approximately 30 seconds), and the animal was monitored for at least 6 minutes for changes in cardiovascular efforts. Compounds were prepared in formulations identified to ensure optimal solubility. As such, vehicle controls were matched for the formulation of each compound tested. Dosing of the compound being screened was 0.1 and 0.3 mg/kg. The next dose was not administered until all cardiovascular and respiratory measures had returned to baseline levels. The positive control compounds used were N-[4,6-di-(n-propylamino)-[1,3,5]triazin-2-yl]-O,N-dimethyl-hydroxylamine or N-[2,6-di-(n-propylamino)-[1,3]pyrimidin-4-yl]-O,N-dimethyl-hydroxylamine, both administered at the end of each screening experiment (0.3 mg/kg dose) to validate the experiment and also to serve as a measure with which the compound being screened could be compared.
Data were analyzed by collecting cardiovascular and respiratory data in 30 second averages (BINs). Data were plotted 2 minutes before challenge and then 6 minutes after challenge.
FIGS. 2A-2F summarize the effects of individual compounds on peak minute ventilation (increase in VE), overall increase in 2 minute area under the curve (AUC) which is a cumulative measure of effect, along with compound stability (half-life) in rat and human microsomes.

[6] = Solubility of cyanuric chloride in various solvents; assay type: physicochemical; settings: 10 g in 50 mL, sonicated 1 h
Protocol: The solubility of cyanuric chloride was examined as a way to limit its reactivity and the formation of undesired by-products. Cyanuric chloride (10 g) was mixed with 50 mL of indicated solvent (Table 22) and sonicated for 1 h with occasional swirling. If solid material remained as a suspension, it was filtered off and weighed.

C#CCNc1nc(N(C)OC)c2cc[nH]c2n1.Cl
melting point: 182 to 184 °C

C#CCN(OC)c1nc(NCCC)nc(NCCC)n1.Cl
melting point: 110 to 113 °C

C#CCON(C)c1nc(NCCC)nc(NCCC)n1.Cl
melting point: 105 to 107 °C

C#CCNc1nc(NCCC)nc(N(C)OCC#C)n1.Cl
melting point: 84 to 86 °C

C#CCNc1nc(NCCC)nc(N(C)OC)n1
melting point: 79 to 81 °C

C#CCNc1nc(NCCC)nc(N(C)OC)n1.O=C(O)/C=C\C(=O)O
melting point: 123 to 125 °C

C#CCNc1nc(NCCC)nc(N(C)OC)n1.O=C(O)CC(=O)O
melting point: 113 to 115 °C

C#CCNc1nc(NCCC)nc(N(C)OC)n1.O=C(O)/C=C/C(=O)O
melting point: 153 to 155 °C

C#CCNc1nc(NC2CCC2)nc(N(C)OC)n1.Cl
melting point: 105 to 107 °C

C#CCNc1nc(NCCC)nc(N(C)OC)n1 [Compound 5b, O,N-Dimethyl-N-[4-(n-propylamino)-6-(prop-2-ynylamino)-[1,3,5]triazin-2-yl]-hydroxylamine hydrogen sulfate]
solubility in MeOH ([1]; MeOH): freely soluble | solubility in water ([1]; water): freely soluble | central apneas during NREM sleep, percent change from baseline (pre-treatment) [2]: percent change (decrease) in apnea frequency was present | NREM minute volume (VE) ([2]; hydrogen sulfate): no statistically significant effects; also recorded: trend for an initial increase in minute volume between 0 to 60 min post-dose; also recorded: no discernible effect | REM minute volume ([2]; hydrogen sulfate): no visible effects | frequency of central apneas during NREM sleep ([2]; hydrogen sulfate): decreased apnea frequency at 120 min and 150 min post-gavage compared to vehicle; also recorded: decreased apnea frequency during NREM sleep compared to vehicle and the pre-treatment (baseline) values; also recorded: significantly reduces | frequency of central apneas during REM sleep ([2]; hydrogen sulfate): did not visibly alter; also recorded: no visible effect; also recorded: does not reduce | minute volume prior to carotid body denervation ([3]; 0.1 and 0.3 mg/kg IV bolus): dose-dependently increased minute volume | ventilatory response after carotid sinus nerve transection ([3]; 0.1 and 0.3 mg/kg IV bolus): completely abolished the ventilatory response | ventilatory response after SHAM surgery ([3]; IV bolus): no effect on the ventilatory response | duration of the increase in minute ventilation [4]: 120 min | increase in minute ventilation compared to baseline [4]: approximately 50% | effect on mean blood pressure ([4]; during the period of increased ventilation): no significant effect

C#CCNc1nc(NC)nc(NCCC)n1.Cl [Compound 7a, N-Methyl-N′-n-propyl-N″-prop-2-ynyl-[1,3,5]triazine-2,4,6-triamine hydrochloride]
duration of the increase in minute ventilation [5]: approximately 2 minutes | increase in minute ventilation above baseline values [5]: up to 85% | increase in respiratory rate [5]: up to 46% | increase in tidal volume [5]: up to 27%

C#CCNc1nc(NCCC)nc(N(Cc2ccc(F)cc2)OC)n1 [Compound 9a, N-(4-Fluorobenzyl)-O-methyl-N-[4-(n-propylamino)-6-(prop-2-ynylamino)-[[1,3,5]triazin-2-yl]-hydroxylamine hydrochloride]
duration of the increase in minute ventilation [5]: approximately 2 minutes | increase in minute ventilation above baseline values [5]: up to 110% | increase in respiratory rate [5]: up to 24% | increase in tidal volume [5]: up to 72%

C#CCNc1nc(N)nc(N(C)OC)n1 [Compound 132, N-(4-Amino-6-prop-2-ynylamino-[1,3,5]triazin-2-yl)-O,N-dimethyl-hydroxylamine]
melting point: 172 to 174 °C

Clc1nc(Cl)nc(Cl)n1 [cyanuric chloride]
Solubility of cyanuric chloride ([6]; Acetone, 0 °C): partial crystallization | Solubility of cyanuric chloride ([6]; Acetone, r.t.): soluble | Solubility of cyanuric chloride ([6]; DMAc, 0 °C): soluble | Solubility of cyanuric chloride ([6]; DMAc, r.t.): soluble | Solubility of cyanuric chloride ([6]; DMF, 0 °C): decomposition | Solubility of cyanuric chloride ([6]; DMF, r.t.): decomposition | Solubility of cyanuric chloride ([6]; DMSO, 0 °C): decomposition | Solubility of cyanuric chloride ([6]; DMSO, r.t.): decomposition | Solubility of cyanuric chloride ([6]; Dioxane, 0 °C): soluble | Solubility of cyanuric chloride ([6]; Dioxane, r.t.): soluble | Solubility of cyanuric chloride ([6]; IPA, 0 °C): insoluble | Solubility of cyanuric chloride ([6]; MeCN, 0 °C): insoluble | Solubility of cyanuric chloride ([6]; MeCN, r.t.): 150 µg/mL | Solubility of cyanuric chloride ([6]; THF, 0 °C): soluble | Solubility of cyanuric chloride ([6]; THF, r.t.): soluble | Solubility of cyanuric chloride ([6]; Toluene, 0 °C): soluble | Solubility of cyanuric chloride ([6]; Toluene, r.t.): soluble
